Reference: the supplement of paper PMC11061612

Assays:
[1] = test system: ALL-PO (B-Lymphoblastic Leukemia); test: Bliss excess, mean over the matrix (fraction); higher = more synergy
Procedure, shortened: (§1)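 After 24 hours at 37°C and 5% CO2 in 1536-well plates, cells in DMEM/F12 or RPMI plus 10% FBS received two-drug dose matrices for 72 hours. Viability came from CellTiter-Glo 2.0 luminescence and was scaled as inhibition, anchored at 0 by vehicle wells and at 1 by blank wells. Combination Emax is taken as the second-highest inhibition in the matrix, and Bliss excess as the observed combination effect less EA + EB − EA·EB, with EA and EB the single-agent effects.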

[2] = test system: BFTC-909 (Kidney Carcinoma); test: as above
Procedure, shortened: as §1

[3] = test system: BPH-1 (Non-Cancerous); test: as above
Procedure, shortened: as §1

[4] = test system: CHP-134 (Neuroblastoma); test: as above
Procedure, shortened: as §1

[5] = test system: HH (T-Cell Non-Hodgkin's Lymphoma); test: as above
Procedure, shortened: as §1

[6] = test system: KYAE-1 (Esophageal Adenocarcinoma); test: as above
Procedure, shortened: as §1

[7] = test system: NCI-H1568 (Lung Adenocarcinoma); test: as above
Procedure, shortened: as §1

[8] = test system: NCI-H2722 (Mesothelioma); test: as above
Procedure, shortened: as §1

[9] = test system: NCI-H720 (Other Solid Carcinomas); test: as above
Procedure, shortened: as §1

[10] = test system: SNU-449 (Hepatocellular Carcinoma); test: as above
Procedure, shortened: as §1

[11] = test system: YAPC (Pancreatic Carcinoma); test: as above
Procedure, shortened: as §1

[12] = test system: CHP-134 (Neuroblastoma); test: combination Emax (second highest fraction inhibited in the dose matrix, 72 h); higher = more inhibition; extreme values may be limits of the assay
Procedure, shortened: as §1

[13] = test system: NCI-H720 (Other Solid Carcinomas); test: as above
Procedure, shortened: as §1

[14] = test system: NCI-H209 (Small Cell Lung Carcinoma); test: Bliss excess, mean over the matrix (fraction); higher = more synergy
Procedure, shortened: as §1
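For Bliss excess, mean over the matrix in this document: after 72 h of two-drug dosing.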

| Compound | Bliss excess [1] | Bliss excess [2] | Bliss excess [3] | Bliss excess [4] | Bliss excess [5] | Bliss excess [6] | Bliss excess [7] | Bliss excess [8] | Bliss excess [9] | Bliss excess [10] | Bliss excess [11] | combination Emax [12] | combination Emax [13] | Bliss excess [14] |
| --- | --- | --- | --- | --- | --- | --- | --- | --- | --- | --- | --- | --- | --- | --- |
| C=CCn1c(=O)c2cnc(Nc3ccc(N4CCN(C)CC4)cc3)nc2n1-c1cccc(C(C)(C)O)n1 [AZD1775] + C1CN(CCC1(C(=O)N[C@@H](CCO)C2=CC=C(C=C2)Cl)N)C3=NC=NC4=C3C=CN4 [Capivasertib] (first compound max 3 µM, partner max 3 µM) | -0.0134 | -0.0004 | -0.0371 | -0.0416 | -0.144 | -0.0284 | -0.0572 | -0.0603 | -0.0252 | 0.0122 | -0.0097 | 0.844 | 0.842 |  |
| CN(C)CCCOc1ccc(-c2ccc3ncc4c(c3c2)n(C2CCOCC2)c(=O)n4C)cn1 [AZD0156] + O=C(c1cc(Cc2n[nH]c(=O)c3ccccc23)ccc1F)N1CCN(C(=O)C2CC2)CC1 [Olaparib] (first compound max 3 µM, partner max 3 µM) | 0.0594 | 0.0705 | 0.158 | 0.174 | -0.0513 | 0.0247 | 0.0101 | -0.017 | 0.0622 | -0.0344 | 0.0131 | 0.434 | 0.371 | 0.163 |
| CCc1c2c(nc3ccc(O)cc13)-c1cc3c(c(=O)n1C2)COC(=O)[C@]3(O)CC [SN-38] + CN(C)CCCOc1ccc(-c2ccc3ncc4c(c3c2)n(C2CCOCC2)c(=O)n4C)cn1 [AZD0156] (first compound max 0.3 µM, 7x7, partner max 1 µM) | 0.0685 | 0.0225 | 0.0463 |  | -0.0452 | -0.0188 | -0.0078 | -0.0318 | 0.035 | -0.0353 | -0.0553 |  | 0.397 | -0.0073 |
| CN(C)CCCOc1ccc(-c2ccc3ncc4c(c3c2)n(C2CCOCC2)c(=O)n4C)cn1 [AZD0156] + C[C@@H]1COCCN1C2=NC(=NC(=C2)C3(CC3)[S@](=N)(=O)C)C4=C5C=CNC5=NC=C4 [AZD6738] (first compound max 1 µM, 7x7, partner max 10 µM) | 0.0402 | 0.027 | -0.0092 |  | 0.0175 | -0.011 | -0.0424 | -0.0384 | -0.0059 | -0.0662 | -0.0354 |  | 0.716 | 0.0711 |
| CCN(CCO)CCCOc1ccc2c(Nc3cc(CC(=O)Nc4cccc(F)c4)[nH]n3)ncnc2c1 [AZD2811] + C[C@@H]1COCCN1C2=NC(=NC(=C2)C3(CC3)[S@](=N)(=O)C)C4=C5C=CNC5=NC=C4 [AZD6738] (first compound max 1 µM, 7x7, partner max 10 µM) | -0.0288 | -0.0231 | -0.0111 |  | -0.033 | -0.0234 | -0.0514 | 0.006 | 0.0033 | -0.0536 | -0.0367 |  | 0.8 | 0.0731 |
| COc1cccc(OCCCN)c1-c1cc(Nc2cnc(C#N)cn2)n[nH]1 [Prexasertib] + C=CCn1c(=O)c2cnc(Nc3ccc(N4CCN(C)CC4)cc3)nc2n1-c1cccc(C(C)(C)O)n1 [AZD1775] (first compound max 1 µM, partner max 1 µM) | 0.0744 | 0.11 | 0.115 |  | 0.0872 | 0.103 | 0.0284 | 0.0156 | 0.107 | -0.0048 | 0.0441 |  | 0.692 | 0.0444 |
| CCN(CCO)CCCOc1ccc2c(Nc3cc(CC(=O)Nc4cccc(F)c4)[nH]n3)ncnc2c1 [AZD2811] + C=CCn1c(=O)c2cnc(Nc3ccc(N4CCN(C)CC4)cc3)nc2n1-c1cccc(C(C)(C)O)n1 [AZD1775] (first compound max 1 µM, partner max 1 µM) | 0.0382 | 0.0293 | -0.0007 |  | -0.0179 | -0.0176 | -0.0301 | 0.023 | 0.0326 | -0.0028 | -0.0392 |  | 0.679 | 0.089 |
| CN(C)CCCOc1ccc(-c2ccc3ncc4c(c3c2)n(C2CCOCC2)c(=O)n4C)cn1 [AZD0156] + CCN(CCO)CCCOc1ccc2c(Nc3cc(CC(=O)Nc4cccc(F)c4)[nH]n3)ncnc2c1 [AZD2811] (first compound max 1 µM, 7x7, partner max 1 µM) | -0.024 | -0.0015 | 0.0625 |  | -0.0412 | -0.0154 | -0.0376 | -0.0226 | 0.0368 | -0.0656 | -0.0536 |  | 0.742 | 0.0922 |
| COc1cccc(OCCCN)c1-c1cc(Nc2cnc(C#N)cn2)n[nH]1 [Prexasertib] + CCc1c2c(nc3ccc(O)cc13)-c1cc3c(c(=O)n1C2)COC(=O)[C@]3(O)CC [SN-38] (first compound max 1 µM, 7x7, partner max 0.3 µM) | -0.0336 | 0.0075 | 0.011 |  | 0.0727 | 0.102 | 0.0165 | -0.0565 | 0.197 | -0.0091 | -0.0776 |  | 0.886 | 0.0053 |
| CN(C)CCCOc1ccc(-c2ccc3ncc4c(c3c2)n(C2CCOCC2)c(=O)n4C)cn1 [AZD0156] + C=CCn1c(=O)c2cnc(Nc3ccc(N4CCN(C)CC4)cc3)nc2n1-c1cccc(C(C)(C)O)n1 [AZD1775] (first compound max 1 µM, partner max 1 µM) | 0.0128 | -0.0638 | 0.0475 |  | -0.0689 | -0.0143 | -0.0493 | -0.0363 | 0.0013 | -0.0635 | -0.0575 |  | 0.722 | -0.0624 |
| C=CCn1c(=O)c2cnc(Nc3ccc(N4CCN(C)CC4)cc3)nc2n1-c1cccc(C(C)(C)O)n1 [AZD1775] + O=C(c1cc(Cc2n[nH]c(=O)c3ccccc23)ccc1F)N1CCN(C(=O)C2CC2)CC1 [Olaparib] (first compound max 1 µM, partner max 10 µM) | 0.0063 | 0.0075 | -0.0199 |  | -0.0449 | -0.0006 | -0.0745 | -0.0143 | -0.035 | -0.0418 | -0.071 |  | 0.671 | -0.0579 |
| C=CCn1c(=O)c2cnc(Nc3ccc(N4CCN(C)CC4)cc3)nc2n1-c1cccc(C(C)(C)O)n1 [AZD1775] + C[C@@H]1COCCN1C2=NC(=NC(=C2)C3(CC3)[S@](=N)(=O)C)C4=C5C=CNC5=NC=C4 [AZD6738] (first compound max 1 µM, partner max 10 µM) | 0.0624 | 0.0858 | 0.0614 |  | 0.0379 | 0.026 | -0.0346 | -0.0029 | 0.0344 | -0.0061 | -0.0399 |  | 0.838 | 0.0422 |
| COc1cccc(OCCCN)c1-c1cc(Nc2cnc(C#N)cn2)n[nH]1 [Prexasertib] + CN(C)CCCOc1ccc(-c2ccc3ncc4c(c3c2)n(C2CCOCC2)c(=O)n4C)cn1 [AZD0156] (first compound max 1 µM, 7x7, partner max 1 µM) | 0.0036 | -0.0397 | 0.0118 |  | -0.0001 | 0.0184 | -0.032 | 0.0073 | 0.0149 | -0.0227 | -0.0799 |  | 0.562 | 0.0016 |
| COc1cccc(OCCCN)c1-c1cc(Nc2cnc(C#N)cn2)n[nH]1 [Prexasertib] + O=C(c1cc(Cc2n[nH]c(=O)c3ccccc23)ccc1F)N1CCN(C(=O)C2CC2)CC1 [Olaparib] (first compound max 1 µM, 7x7, partner max 10 µM) | -0.0194 | -0.0109 | 0.0266 |  | -0.121 | 0.0116 | -0.0593 | -0.0088 | 0.0208 | -0.0813 | -0.0491 |  | 0.64 | -0.0442 |
| COc1cccc(OCCCN)c1-c1cc(Nc2cnc(C#N)cn2)n[nH]1 [Prexasertib] + Cc1cc2ncnn2cc1Nc1ncc2c(n1)n(C1CCOCC1)c(=O)n2C [AZD7648] (first compound max 1 µM, 7x7, partner max 10 µM) | 0.0031 | 0.0182 | 0.0161 |  | -0.021 | 0.0382 | -0.0303 | -0.012 | 0.0515 | -0.0861 | -0.0172 |  | 0.746 | 0 |
